PMC10794144, “A novel antibiotic class targeting the lipopolysaccharide transporter” (Nature, 2024)

Test system: A. baumannii
Test: microbe, parasite or virus in culture
How it was run: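 MIC was taken as the lowest concentration without visible growth, or past which OD600 no longer fell. Testing followed CLSI M07 and M100 broth microdilution, using 0.5 McFarland-derived inocula in CAMHB (LB for A. baylyi isolates).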

CN1C(=O)[C@H](CCCCN)NC(=O)[C@H](CCCN)NCc2cccnc2Sc2c(Cl)ccc(Cl)c2CNC(=O)[C@@H]1Cc1c[nH]c2ccccc12 [RO7075573]
1 µg/mL: MIC 100% (ROB08704, Study ROC010) | MIC 100% (ROB08705, Study LGC295147) | MIC 80% (ROB08706, Study LGC284879)
0.12 µg/mL: MIC 80% (ROB08705, Study LGC282160) | MIC 100% (ROB08705, Study LGC284879) | MIC 80% (ROB08705, Study LGC295147) | MIC 80% (ROB08705, Study LGC299544) | MIC 100% (ROB08705, Study LGC299544) | MIC 80% (ROB08705, Study ROC010) | MIC 100% (ROB08705, Study ROC012) | MIC 80% (ROB08707, Study LGC282160) | MIC 80% (ROB08707, Study LGC284879) | MIC 80% (ROB08707, Study LGC285582) | MIC 80% (ROB08707, Study LGC286210) | MIC 80% (ROB08707, Study LGC294355) | MIC 80% (ROB08707, Study LGC295147) | MIC 80% (ROB08707, Study LGC296813) | MIC 80% (ROB08707, Study LGC299544) | MIC 80% (ROB08707, Study ROC010) | MIC 100% (ROB08707, Study ROC010)
32 µg/mL: MIC 100% (ROB08704, Study ROC012) | MIC 100% (ROB08705, Study LGC282160) | MIC 100% (ROB08705, Study LGC294355) | MIC 100% (ROB08706, Study ROC012)
0.25 µg/mL: MIC 80% (ROB08704, Study ROC012) | MIC 80% (ROB08706, Study LGC281440) | MIC 80% (ROB08706, Study LGC282160) | MIC 80% (ROB08706, Study LGC285582) | MIC 80% (ROB08706, Study LGC295147) | MIC 80% (ROB08707, Study LGC301026)
>64 µg/mL: MIC 100% (ROB08706, Study LGC284879) | MIC 100% (ROB08706, Study LGC293598) | MIC 100% (ROB08706, Study LGC294355) | MIC 100% (ROB08707, Study LGC284879) | MIC 100% (ROB08707, Study LGC293598) | MIC 100% (ROB08707, Study LGC294355)
64 µg/mL: MIC 100% (ROB08705, Study ROC010) | MIC 100% (ROB08706, Study LGC282160) | MIC 100% (ROB08706, Study LGC285582) | MIC 100% (ROB08706, Study LGC286210) | MIC 100% (ROB08706, Study LGC295147) | MIC 100% (ROB08706, Study LGC296813) | MIC 100% (ROB08706, Study LGC299544) | MIC 100% (ROB08706, Study LGC301026) | MIC 100% (ROB08706, Study LGC308175) | MIC 100% (ROB08707, Study LGC282160) | MIC 100% (ROB08707, Study LGC285582) | MIC 100% (ROB08707, Study LGC286210) | MIC 100% (ROB08707, Study LGC295147) | MIC 100% (ROB08707, Study LGC296813) | MIC 100% (ROB08707, Study LGC299544) | MIC 100% (ROB08707, Study LGC301026) | MIC 100% (ROB08707, Study LGC308175)
0.5 µg/mL: MIC 80% (ROB08704, Study ROC010) | MIC 80% (ROB08706, Study LGC286210) | MIC 80% (ROB08706, Study LGC293598) | MIC 80% (ROB08706, Study LGC294355) | MIC 80% (ROB08706, Study LGC296813) | MIC 80% (ROB08706, Study LGC299544) | MIC 80% (ROB08706, Study LGC301026) | MIC 80% (ROB08706, Study LGC308175) | MIC 80% (ROB08706, Study ROC010) | MIC 100% (ROB08706, Study ROC010) | MIC 80% (ROB08706, Study ROC012)
16 µg/mL: MIC 100% (ROB08706, Study LGC281440) | MIC 100% (ROB08707, Study LGC281440)
≤0.06 µg/mL: MIC 80% (ROB08705, Study LGC281440) | MIC 100% (ROB08705, Study LGC281440) | MIC 80% (ROB08705, Study LGC284879) | MIC 80% (ROB08705, Study LGC285582) | MIC 100% (ROB08705, Study LGC285582) | MIC 80% (ROB08705, Study LGC286210) | MIC 100% (ROB08705, Study LGC286210) | MIC 80% (ROB08705, Study LGC293598) | MIC 100% (ROB08705, Study LGC293598) | MIC 80% (ROB08705, Study LGC294355) | MIC 80% (ROB08705, Study LGC296813) | MIC 100% (ROB08705, Study LGC296813) | MIC 80% (ROB08705, Study LGC301026) | MIC 100% (ROB08705, Study LGC301026) | MIC 80% (ROB08705, Study LGC308175) | MIC 100% (ROB08705, Study LGC308175) | MIC 80% (ROB08705, Study ROC012) | MIC 80% (ROB08707, Study LGC281440) | MIC 80% (ROB08707, Study LGC293598) | MIC 80% (ROB08707, Study LGC308175)
